According to ChEMBL document CHEMBL1139284, “Synthesis and evaluation of novel photoreactive alpha-amino acid analog carrying acidic and cleavable functions” (Bioorg Med Chem Lett, 2009):
The source made the active and inactive calls. The calls are words filed in the database; no cut-off is given here.

Assays:
[1] = molecular target: Glutamyl endopeptidase (Staphylococcus aureus) (UniProt P0C1U8); assay: Binding affinity to Staphylococcus aureus V8 glutamyl endopeptidase after 40 mins of UV irradiation by photoaffinity labeling assay
Glutamyl endopeptidase = Glutamyl endopeptidase (Staphylococcus aureus, UniProt P0C1U8); assay: Binding affinity to Staphylococcus aureus V8 glutamyl endopeptidase; conditions: read-out: Ki(app)
Chain of Glutamyl endopeptidase (P0C1U8 whole entry): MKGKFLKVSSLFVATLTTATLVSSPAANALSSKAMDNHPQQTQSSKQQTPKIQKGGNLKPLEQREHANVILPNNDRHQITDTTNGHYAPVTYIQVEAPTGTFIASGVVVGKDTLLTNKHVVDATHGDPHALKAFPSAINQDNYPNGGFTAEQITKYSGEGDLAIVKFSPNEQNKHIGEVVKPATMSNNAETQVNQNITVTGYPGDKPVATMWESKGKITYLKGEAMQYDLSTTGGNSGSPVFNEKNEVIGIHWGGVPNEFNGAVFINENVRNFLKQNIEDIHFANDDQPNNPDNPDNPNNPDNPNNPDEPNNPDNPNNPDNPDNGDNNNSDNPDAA

Chain of Glutamyl endopeptidase (Staphylococcus aureus) (P0C1U8 whole entry): as above

| SMILES | Activity [1] | Ki (Glutamyl endopeptidase) [µM] |
| --- | --- | --- |
| CC(C)(C)OC(=O)N[C@@H](CCC(=O)O)C(N)=O | Active |  |
| CC(C)(C)OC(=O)N[C@@H](CCC(=O)OCc1ccccc1)C(N)=O | inactive |  |
| CC(C)(C)OC(=O)N[C@@H](CS(=O)(=O)NC(=O)c1ccc(C2(C(F)(F)F)N=N2)cc1)C(=O)NCCOCCOCCNC(=O)CCCC[C@@H]1SCC2NC(=O)NC21 (some centres undefined) |  | 162 |
| CC(C)(C)OC(=O)N[C@@H](CS(=O)(=O)NC(=O)c1ccccc1)C(N)=O | Active |  |
